# Measurements published in PubChem BioAssay (NCI).
#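 GI50 = concentration required for 50% inhibition of growth. The concentration for full growth arrest is given as TGI.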
# Key:
# Experiment in all cases: NCI anticancer screen, dose series, 384-well format
# 786-0 renal = tested on: 786-0 renal
# A498 renal = tested on: A498 renal
# A549 NSCLC = tested on: A549 NSCLC
# ACHN renal = tested on: ACHN renal
# BT-549 breast = tested on: BT-549 breast
# CAKI-1 renal = tested on: CAKI-1 renal
# CCRF-CEM leukemia = tested on: CCRF-CEM leukemia
# COLO 205 colon = tested on: COLO 205 colon
# DU-145 prostate = tested on: DU-145 prostate
# EKVX NSCLC = tested on: EKVX NSCLC
# HCC-2998 colon = tested on: HCC-2998 colon
# HCT-116 colon = tested on: HCT-116 colon
# HCT-15 colon = tested on: HCT-15 colon
# HL-60(TB) leukemia = tested on: HL-60(TB) leukemia
# HOP-62 NSCLC = tested on: HOP-62 NSCLC
# HOP-92 NSCLC = tested on: HOP-92 NSCLC
# HS 578T breast = tested on: HS 578T breast
# HT29 colon = tested on: HT29 colon
# IGROV1 ovarian = tested on: IGROV1 ovarian
# K-562 leukemia = tested on: K-562 leukemia
# KM12 colon = tested on: KM12 colon
# LOX IMVI melanoma = tested on: LOX IMVI melanoma
# M14 melanoma = tested on: M14 melanoma
# MALME-3M melanoma = tested on: MALME-3M melanoma
# MCF7 breast = tested on: MCF7 breast
# MDA-MB-231 breast = tested on: MDA-MB-231 breast
# MDA-MB-435 melanoma = tested on: MDA-MB-435 melanoma
# MDA-MB-468 breast = tested on: MDA-MB-468 breast
# MOLT-4 leukemia = tested on: MOLT-4 leukemia
# NCI-H226 lung = tested on: NCI-H226 lung
# NCI-H23 lung = tested on: NCI-H23 lung
# NCI-H322M lung = tested on: NCI-H322M lung
# NCI-H460 NSCLC = tested on: NCI-H460 NSCLC
# NCI-H522 lung = tested on: NCI-H522 lung
# NCI/ADR-RES ovarian = tested on: NCI/ADR-RES ovarian
# OVCAR-3 ovarian = tested on: OVCAR-3 ovarian
# OVCAR-4 ovarian = tested on: OVCAR-4 ovarian
# OVCAR-5 ovarian = tested on: OVCAR-5 ovarian
# OVCAR-8 ovarian = tested on: OVCAR-8 ovarian
# PC-3 prostate = tested on: PC-3 prostate
# RPMI-8226 leukemia = tested on: RPMI-8226 leukemia
# RXF 393 renal = tested on: RXF 393 renal
# SF-268 CNS = tested on: SF-268 CNS
# SF-295 CNS = tested on: SF-295 CNS
# SF-539 CNS = tested on: SF-539 CNS
# SK-MEL-28 melanoma = tested on: SK-MEL-28 melanoma
# SK-MEL-5 melanoma = tested on: SK-MEL-5 melanoma
# SK-OV-3 ovarian = tested on: SK-OV-3 ovarian
# SN12C renal = tested on: SN12C renal
# SNB-19 CNS = tested on: SNB-19 CNS
# SNB-75 CNS = tested on: SNB-75 CNS
# SW-620 colon = tested on: SW-620 colon
# T-47D breast = tested on: T-47D breast
# TK-10 renal = tested on: TK-10 renal
# U251 glioblastoma = tested on: U251 glioblastoma
# UACC-257 melanoma = tested on: UACC-257 melanoma
# UACC-62 melanoma = tested on: UACC-62 melanoma
# UO-31 renal = tested on: UO-31 renal
compound,measurement,setting,value
CC(=O)N1CCN(CCOc2ccc(C3CCN(C4=Nn5c(nnc5C(F)(F)F)CC4)CC3)cc2)CC1,GI50,786-0 renal,8.6 µM
same,TGI,786-0 renal,69.3 µM
same,GI50,A498 renal,14.7 µM
same,TGI,A498 renal,77.2 µM
same,GI50,A549 NSCLC,14.2 µM
same,TGI,A549 NSCLC,> 100 µM
same,GI50,ACHN renal,15.3 µM
same,TGI,ACHN renal,62.8 µM
same,GI50,BT-549 breast,5.94 µM
same,TGI,BT-549 breast,39.8 µM
same,GI50,CAKI-1 renal,3.53 µM
same,TGI,CAKI-1 renal,> 100 µM
same,GI50,CCRF-CEM leukemia,4.06 µM
same,TGI,CCRF-CEM leukemia,19.3 µM
same,GI50,COLO 205 colon,15.2 µM
same,TGI,COLO 205 colon,> 100 µM
same,GI50,DU-145 prostate,32 µM
same,TGI,DU-145 prostate,> 100 µM
same,GI50,EKVX NSCLC,16.8 µM
same,TGI,EKVX NSCLC,> 100 µM
same,GI50,HCC-2998 colon,6.17 µM
same,TGI,HCC-2998 colon,24.2 µM
same,GI50,HCT-116 colon,13.4 µM
same,TGI,HCT-116 colon,> 100 µM
same,GI50,HCT-15 colon,18.1 µM
same,TGI,HCT-15 colon,> 100 µM
same,GI50,HL-60(TB) leukemia,3.79 µM
same,TGI,HL-60(TB) leukemia,14.7 µM
same,GI50,HOP-62 NSCLC,4.71 µM
same,TGI,HOP-62 NSCLC,25.9 µM
same,GI50,HOP-92 NSCLC,14.5 µM
same,TGI,HOP-92 NSCLC,> 100 µM
same,GI50,HS 578T breast,4.78 µM
same,TGI,HS 578T breast,31.2 µM
same,GI50,HT29 colon,10.4 µM
same,TGI,HT29 colon,> 100 µM
same,GI50,IGROV1 ovarian,6.07 µM
same,TGI,IGROV1 ovarian,54.1 µM
same,GI50,K-562 leukemia,3.66 µM
same,TGI,K-562 leukemia,> 100 µM
same,GI50,KM12 colon,12 µM
same,TGI,KM12 colon,> 100 µM
same,GI50,LOX IMVI melanoma,3.75 µM
same,TGI,LOX IMVI melanoma,17.9 µM
same,GI50,M14 melanoma,10.9 µM
same,TGI,M14 melanoma,> 100 µM
same,GI50,MALME-3M melanoma,11.6 µM
same,TGI,MALME-3M melanoma,75.2 µM
same,GI50,MCF7 breast,3.42 µM
same,TGI,MCF7 breast,83.1 µM
same,GI50,MDA-MB-231 breast,5.58 µM
same,TGI,MDA-MB-231 breast,> 100 µM
same,GI50,MDA-MB-435 melanoma,32.8 µM
same,TGI,MDA-MB-435 melanoma,> 100 µM
same,GI50,MDA-MB-468 breast,1720 nM
same,TGI,MDA-MB-468 breast,10 µM
same,GI50,MOLT-4 leukemia,4.72 µM
same,TGI,MOLT-4 leukemia,21.4 µM
same,GI50,NCI-H226 lung,15 µM
same,TGI,NCI-H226 lung,> 100 µM
same,GI50,NCI-H23 lung,8.08 µM
same,TGI,NCI-H23 lung,> 100 µM
same,GI50,NCI-H322M lung,13 µM
same,TGI,NCI-H322M lung,> 100 µM
same,GI50,NCI-H460 NSCLC,13.3 µM
same,TGI,NCI-H460 NSCLC,36.6 µM
same,GI50,NCI-H522 lung,2900 nM
same,TGI,NCI-H522 lung,20.1 µM
same,GI50,NCI/ADR-RES ovarian,24.1 µM
same,TGI,NCI/ADR-RES ovarian,75.6 µM
same,GI50,OVCAR-3 ovarian,7.08 µM
same,TGI,OVCAR-3 ovarian,35.3 µM
same,GI50,OVCAR-4 ovarian,11.8 µM
same,TGI,OVCAR-4 ovarian,71.7 µM
same,GI50,OVCAR-5 ovarian,15.1 µM
same,TGI,OVCAR-5 ovarian,> 100 µM
same,GI50,OVCAR-8 ovarian,12.3 µM
same,TGI,OVCAR-8 ovarian,60 µM
same,GI50,PC-3 prostate,9.08 µM
same,TGI,PC-3 prostate,> 100 µM
same,GI50,RPMI-8226 leukemia,3.34 µM
same,TGI,RPMI-8226 leukemia,13.4 µM
same,GI50,RXF 393 renal,5.97 µM
same,TGI,RXF 393 renal,27.5 µM
same,GI50,SF-268 CNS,2830 nM
same,TGI,SF-268 CNS,12.7 µM
same,GI50,SF-295 CNS,23.6 µM
same,TGI,SF-295 CNS,> 100 µM
same,GI50,SF-539 CNS,13.5 µM
same,TGI,SF-539 CNS,> 100 µM
same,GI50,SK-MEL-28 melanoma,24.2 µM
same,TGI,SK-MEL-28 melanoma,> 100 µM
same,GI50,SK-MEL-5 melanoma,4.83 µM
same,TGI,SK-MEL-5 melanoma,19.7 µM
same,GI50,SK-OV-3 ovarian,6.93 µM
same,TGI,SK-OV-3 ovarian,31.8 µM
same,GI50,SN12C renal,22.5 µM
same,TGI,SN12C renal,> 100 µM
same,GI50,SNB-19 CNS,17.9 µM
same,TGI,SNB-19 CNS,83.4 µM
same,GI50,SNB-75 CNS,8.08 µM
same,TGI,SNB-75 CNS,76.5 µM
same,GI50,SW-620 colon,> 100 µM
same,TGI,SW-620 colon,> 100 µM
same,GI50,T-47D breast,1160 nM
same,TGI,T-47D breast,7.99 µM
same,GI50,TK-10 renal,20.9 µM
same,TGI,TK-10 renal,> 100 µM
same,GI50,U251 glioblastoma,16.5 µM
same,TGI,U251 glioblastoma,67.3 µM
same,GI50,UACC-257 melanoma,4.87 µM
same,TGI,UACC-257 melanoma,26.2 µM
same,GI50,UACC-62 melanoma,4.27 µM
same,TGI,UACC-62 melanoma,88.8 µM
same,GI50,UO-31 renal,22.9 µM
same,TGI,UO-31 renal,> 100 µM
